Structures are written as SMILES. pIC50: −log10 of the molar value.

Kallikrein-1, sequence (P06870 whole entry): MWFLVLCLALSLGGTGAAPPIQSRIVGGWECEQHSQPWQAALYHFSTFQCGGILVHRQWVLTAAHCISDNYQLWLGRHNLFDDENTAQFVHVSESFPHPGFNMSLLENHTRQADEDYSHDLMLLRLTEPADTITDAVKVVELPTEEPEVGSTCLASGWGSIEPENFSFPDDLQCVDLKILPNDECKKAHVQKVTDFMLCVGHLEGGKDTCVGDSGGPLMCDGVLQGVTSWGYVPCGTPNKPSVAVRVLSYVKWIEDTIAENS

Tested on in the first series: not listed separately
In words: Half life in rats. It counts as ADME, organism-based. The conditions noted are these: rat, in vivo.
`CN1CCN=C1c1ccc(C(=O)N2CCN(S(=O)(=O)c3cc4cc(Cl)ccc4[nH]3)CC2)cc1`: the half-life was 7.8 h.

Tested on in a further series: not listed separately
In words: Volume of distribution in rats. Format: ADME, organism-based. The conditions noted are these: rat, in vivo.
The molecule `CN1CCN=C1c1ccc(C(=O)N2CCN(S(=O)(=O)c3cc4cc(Cl)ccc4[nH]3)CC2)cc1` came in with a Vd of 28.9 L/kg.

Tested on in another series: not listed separately
The experiment in a line: Oral bioavailability in rat. Conditions: in vivo. Format: ADME, organism-based.
With `CN(C)C(=N)c1ccc(CN2CCN(S(=O)(=O)c3cc4cc(Cl)ccc4[nH]3)CC2=O)cc1`, the bioavailability turned out to be 4.1%.

Molecule `CN1CCN=C1c1ccc(C(=O)N2CCN(S(=O)(=O)c3cc4cc(Cl)ccc4[nH]3)CC2)cc1` displayed a bioavailability of 1.4%.

Turning to `CN(C)C(=N)c1ccc(CN2CCN(S(=O)(=O)c3cc4ccc(Cl)cc4s3)CC2=O)cc1`, the bioavailability is below 1%.

Tested on in the next series: not listed separately
In words: Plasma clearance in rats. It counts as ADME, organism-based. Conditions: rat.
As for `CN1CCN=C1c1ccc(C(=O)N2CCN(S(=O)(=O)c3cc4cc(Cl)ccc4[nH]3)CC2)cc1`, the clearance is 42.9 mL/min/kg.

In a further series the target is Coagulation factor X (Homo sapiens, UniProt P00742). In words: In vitro inhibitory activity against Coagulation factor X was determined.
Coagulation factor X, sequence (P00742 41-179 limits assumed): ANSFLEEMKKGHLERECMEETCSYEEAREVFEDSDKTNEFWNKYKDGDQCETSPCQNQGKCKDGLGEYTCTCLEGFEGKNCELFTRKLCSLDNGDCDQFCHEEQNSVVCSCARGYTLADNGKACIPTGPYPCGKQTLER
Coagulation factor X, sequence (P00742 235-488 limits assumed): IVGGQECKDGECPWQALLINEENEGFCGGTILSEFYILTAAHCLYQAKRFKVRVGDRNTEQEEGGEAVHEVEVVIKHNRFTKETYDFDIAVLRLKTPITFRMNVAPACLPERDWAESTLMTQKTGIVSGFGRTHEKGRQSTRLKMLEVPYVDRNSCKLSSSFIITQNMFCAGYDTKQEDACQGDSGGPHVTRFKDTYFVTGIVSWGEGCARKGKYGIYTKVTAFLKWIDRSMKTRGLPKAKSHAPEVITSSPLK
Details: not given
Molecule `CNC(=O)CC1CN(S(=O)(=O)c2cc3cc(Cl)ccc3[nH]2)CCN1C(=O)c1ccc(C2=NCCN2C)cc1` (stereo not given) gave a pIC50 of 7.96.

Molecule `O=C(c1ccc(C2=NCCCN2)cc1)N1CCN(S(=O)(=O)c2ccc3cc(Br)ccc3c2)CC1` gave a pIC50 of 5.89.

As to `CN(C)C(=N)c1ccc(CN2CCN(S(=O)(=O)c3cc4cc(Cl)ccc4[nH]3)CC2=O)cc1`, the pIC50 is 7.43.

`N=C(c1ccc(C(=O)N2CCN(S(=O)(=O)c3cc4ccc(Cl)cc4s3)CC2)cc1)N1CCCCC1` gave a pIC50 of 7.15.

Consider `CNC(=N)c1ccc(C(=O)N2CCN(S(=O)(=O)c3ccc4cc(Br)ccc4c3)CC2)cc1`, for which the pIC50 is 6.64.

As for `CN1CCN=C1c1ccc(C(=O)N2CCN(S(=O)(=O)c3cc4cc(Cl)ccc4[nH]3)CC2C(=O)O)cc1` (stereo not given), the pIC50 is 7.92.

Take `CN(C)C(=N)c1ccc(C(=O)N2CCN(S(=O)(=O)c3cc4ccc(Cl)cc4s3)CC2)cc1`: the pIC50 was 7.57.

`N=C(c1ccc(C(=O)N2CCN(S(=O)(=O)c3ccc4cc(Br)ccc4c3)CC2)cc1)N1CCCC1` had a pIC50 of 6.41.

Molecule `N=C(c1ccc(CN2CCN(S(=O)(=O)c3cc4ccc(Cl)cc4s3)CC2=O)cc1)N1CCCC1` showed a pIC50 of 6.85.

On to `O=C(c1ccc(C2=NCCN2)cc1)N1CCN(S(=O)(=O)c2ccc3cc(Br)ccc3c2)CC1`, for which the pIC50 was 6.28.

In turn, `CN(C)C(=O)CC1CN(S(=O)(=O)c2cc3cc(Cl)ccc3[nH]2)CCN1C(=O)c1ccc(C2=NCCN2C)cc1` (stereo not given) showed a pIC50 of 8.00.

Molecule `CN(C)C(=O)CC1CN(S(=O)(=O)c2cc3ccc(Cl)cc3s2)CCN1C(=O)c1ccc(C2=NCCN2C)cc1` (stereo not given) showed a pIC50 of 8.15.

`CN1CCN=C1c1ccc(C(=O)N2CCN(S(=O)(=O)c3cc4ccc(Cl)cc4s3)CC2CC(=O)N2CCCCC2)cc1` (stereo not given) had a pIC50 of 8.22.

Molecule `CN1CCN=C1c1ccc(C(=O)N2CCN(S(=O)(=O)c3cc4ccc(Cl)cc4s3)CC2CC(=O)N2CCN(c3ccncc3)CC2)cc1` (stereo not given) gave a negative-log IC50 (pIC50) of 8.10.

On to `N=C(c1ccc(C(=O)N2CCN(S(=O)(=O)c3cc4cc(Cl)ccc4[nH]3)CC2)cc1)N1CCCC1`, for which the pIC50 is 7.08.

Molecule `N=C(c1ccc(CN2CCN(S(=O)(=O)c3cc4cc(Cl)ccc4[nH]3)CC2=O)cc1)N1CCCCC1` had a pIC50 of 6.82.

In the case of `N=C(c1ccc(CN2CCN(S(=O)(=O)c3cc4cc(Cl)ccc4[nH]3)CC2=O)cc1)N1CCC1`, the pIC50 is 8.10.

Take `COC(=O)CC1CN(S(=O)(=O)c2cc3cc(Cl)ccc3[nH]2)CCN1C(=O)c1ccc(C2=NCCN2C)cc1` (stereo not given): the pIC50 is 8.52.

`CCN1CCN=C1c1ccc(C(=O)N2CCN(S(=O)(=O)c3cc4cc(Cl)ccc4[nH]3)CC2)cc1` had a negative-log IC50 (pIC50) of 7.92.

On to `CN1CCN=C1c1ccc(C(=O)N2CCN(S(=O)(=O)c3ccc4cc(Br)ccc4c3)CC2)cc1`, for which the pIC50 is 7.51.

In the case of `CN1CCN=C1c1ccc(C(=O)N2CCN(S(=O)(=O)c3cc4cc(Cl)ccc4[nH]3)CC2CC(=O)N2CCC2)cc1` (stereo not given), the negative-log IC50 (pIC50) is 8.30.

In turn, `CN1CCN=C1c1ccc(C(=O)N2CCN(S(=O)(=O)c3cc4ccc(Cl)cc4s3)CC2CC(=O)N2CCCC2)cc1` (stereo not given) had a pIC50 of 8.22.

`N=C(c1ccc(C(=O)N2CCN(S(=O)(=O)c3cc4cc(Cl)ccc4[nH]3)CC2)cc1)N1CCC1` had a pIC50 of 7.62.

`CN1CCN=C1c1ccc(C(=O)N2CCN(S(=O)(=O)c3cc4cc(Cl)ccc4[nH]3)CC2CC(=O)N2CCN(c3ccncc3)CC2)cc1` (stereo not given): the pIC50 is 8.10.

`COC(=O)CC1CN(S(=O)(=O)c2cc3ccc(Cl)cc3s2)CCN1C(=O)c1ccc(C2=NCCN2C)cc1` (stereo not given) had a pIC50 of 7.89.

The molecule `COC(=O)C1CCN(C(=O)CC2CN(S(=O)(=O)c3cc4ccc(Cl)cc4s3)CCN2C(=O)c2ccc(C3=NCCN3C)cc2)CC1` (stereo not given) had a pIC50 of 8.10.

In turn, `CCN(C)C(=N)c1ccc(C(=O)N2CCN(S(=O)(=O)c3cc4cc(Cl)ccc4[nH]3)CC2)cc1` gave a pIC50 of 7.57.

The molecule `CN(C)C(=N)c1ccc(C(=O)N2CCN(S(=O)(=O)c3cc4cc(Cl)ccc4[nH]3)CC2)cc1` gave a pIC50 of 7.70.

The molecule `CN1CCN=C1c1ccc(CN2CCN(S(=O)(=O)c3cc4cc(Cl)ccc4[nH]3)CC2=O)cc1` had a pIC50 of 7.24.

For `CN1CCN=C1c1ccc(C(=O)N2CCN(S(=O)(=O)c3cc4ccc(Cl)cc4s3)CC2)cc1`, the pIC50 was 8.05.

Take `N=C(c1ccc(CN2CCN(S(=O)(=O)c3cc4ccc(Cl)cc4s3)CC2=O)cc1)N1CCC1`: the pIC50 was 7.96.

In turn, `CN1CCN=C1c1ccc(C(=O)N2CCN(S(=O)(=O)c3cc4cc(Cl)ccc4[nH]3)CC2CC(=O)N2CCOCC2)cc1` (stereo not given) gave a pIC50 of 7.96.

In turn, `N=C(c1ccc(C(=O)N2CCN(S(=O)(=O)c3ccc4cc(Br)ccc4c3)CC2)cc1)N1CCOCC1` gave a pIC50 of 6.19.

As to `N=C(c1ccc(C(=O)N2CCN(S(=O)(=O)c3cc4ccc(Cl)cc4s3)CC2)cc1)N1CCCC1`, the pIC50 is 7.15.

For `CCN(C)C(=N)c1ccc(C(=O)N2CCN(S(=O)(=O)c3cc4ccc(Cl)cc4s3)CC2)cc1`, the pIC50 is 7.05.

In turn, `CCN1CCN=C1c1ccc(C(=O)N2CCN(S(=O)(=O)c3cc4ccc(Cl)cc4s3)CC2)cc1` showed a pIC50 of 7.44.

Molecule `N=C(c1ccc(CN2CCN(S(=O)(=O)c3cc4cc(Cl)ccc4[nH]3)CC2=O)cc1)N1CCCC1` gave a pIC50 of 6.62.

`CN(C)C(=N)c1ccc(CN2CCN(S(=O)(=O)c3cc4ccc(Cl)cc4s3)CC2=O)cc1`: the negative-log IC50 (pIC50) is 7.52.

The molecule `C#CCN(C)C(=O)CC1CN(S(=O)(=O)c2cc3cc(Cl)ccc3[nH]2)CCN1C(=O)c1ccc(C2=NCCN2C)cc1` (stereo not given) had a pIC50 of 7.85.

In turn, `CN1CCN=C1c1ccc(C(=O)N2CCN(S(=O)(=O)c3cc4ccc(Cl)cc4[nH]3)CC2)cc1` gave a pIC50 of 6.23.

`CN1CCN=C1c1ccc(C(=O)N2CCN(S(=O)(=O)c3cc4cc(Cl)ccc4s3)CC2)cc1` had a pIC50 of 6.57.

`N=C(N)c1ccc(C(=O)N2CCN(S(=O)(=O)c3ccc4cc(Br)ccc4c3)CC2)cc1` had a negative-log IC50 (pIC50) of 7.19.

Turning to `CN1CCCN=C1c1ccc(C(=O)N2CCN(S(=O)(=O)c3ccc4cc(Br)ccc4c3)CC2)cc1`, the pIC50 is 6.37.

For the molecule `N=C(c1ccc(C(=O)N2CCN(S(=O)(=O)c3cc4ccc(Cl)cc4s3)CC2)cc1)N1CCC1`, the pIC50 was 7.60.

`CN1CCN=C1c1ccc(C(=O)N2CCN(S(=O)(=O)c3cc4cc(Cl)ccc4[nH]3)CC2CC(=O)O)cc1` (stereo not given): the pIC50 is 7.39.

Molecule `CN1CCN=C1c1ccc(C(=O)N2CCN(S(=O)(=O)c3cc4cc(Cl)ccc4[nH]3)CC2CC(=O)N2CCCCC2)cc1` (stereo not given) had a pIC50 of 8.15.

Consider `N=C(c1ccc(CN2CCN(S(=O)(=O)c3cc4ccc(Cl)cc4s3)CC2=O)cc1)N1CCCCC1`, for which the pIC50 is 7.00.

`CN1CCN=C1c1ccc(C(=O)N2CCN(S(=O)(=O)c3cc4cc(Cl)ccc4[nH]3)CC2CC(=O)N2CCCC2)cc1` (stereo not given) showed a pIC50 of 8.15.

The molecule `C#CCN(C)C(=O)CC1CN(S(=O)(=O)c2cc3ccc(Cl)cc3s2)CCN1C(=O)c1ccc(C2=NCCN2C)cc1` (stereo not given) showed a pIC50 of 7.72.

Turning to `CN1CCN=C1c1ccc(C(=O)N2CCN(S(=O)(=O)c3cc4ccc(Cl)cc4s3)CC2CC(=O)N2CCC(C(=O)O)CC2)cc1` (stereo not given), the pIC50 is 8.10.

In turn, `CCN1CCN=C1c1ccc(C(=O)N2CCN(S(=O)(=O)c3ccc4cc(Br)ccc4c3)CC2)cc1` showed a pIC50 of 7.17.

Molecule `CN(C)C(=N)c1ccc(C(=O)N2CCN(S(=O)(=O)c3ccc4cc(Br)ccc4c3)CC2)cc1` showed a pIC50 of 6.64.

`CN1CCN=C1c1ccc(C(=O)N2CCN(C(=O)c3cc4cc(Cl)ccc4[nH]3)CC2)cc1` had a pIC50 below 4.96.

In turn, `CN1CCN=C1c1ccc(CN2CCN(S(=O)(=O)c3cc4ccc(Cl)cc4s3)CC2=O)cc1` showed a pIC50 of 7.35.

`CN1CCN=C1c1ccc(C(=O)N2CCN(S(=O)(=O)c3cc4cc(Cl)ccc4[nH]3)CC2CC(N)=O)cc1` (stereo not given) gave a pIC50 of 7.74.

With `CN1CCN=C1c1ccc(C(=O)N2CCN(S(=O)(=O)c3cc4ccc(Cl)cc4s3)CC2CC(=O)N2CCOCC2)cc1` (stereo not given), the pIC50 is 7.82.

The molecule `COC(=O)C1CN(S(=O)(=O)c2cc3cc(Cl)ccc3[nH]2)CCN1C(=O)c1ccc(C2=NCCN2C)cc1` (stereo not given) had a negative-log IC50 (pIC50) of 7.57.

In turn, `N=C(c1ccc(C(=O)N2CCN(S(=O)(=O)c3cc4cc(Cl)ccc4[nH]3)CC2)cc1)N1CCCCC1` showed a pIC50 of 6.92.

Turning to `CN1CCN=C1c1ccc(C(=O)N2CCN(S(=O)(=O)c3cc4ccc(Cl)cc4s3)CC2CC(=O)N2CCC2)cc1` (stereo not given), the pIC50 was 8.00.

Regarding `CN1CCN=C1c1ccc(C(=O)N2CCN(S(=O)(=O)c3cc4ccc(Cl)cc4s3)CC2CC(=O)O)cc1` (stereo not given), the pIC50 is 7.54.

`N=C(c1ccc(C(=O)N2CCN(S(=O)(=O)c3ccc4cc(Br)ccc4c3)CC2)cc1)N1CCCCC1` showed a pIC50 of 6.80.

A further series has as its target Kallikrein-1 (Homo sapiens, UniProt P06870). In words: In vitro inhibitory activity against kallikrein was determined.
Details: not given
Molecule `CN1CCN=C1c1ccc(C(=O)N2CCN(S(=O)(=O)c3cc4cc(Cl)ccc4[nH]3)CC2)cc1` showed a pIC50 of 5.24.

In another series the target is Prothrombin (Homo sapiens, UniProt P00734).
Details: not given
For `CN1CCN=C1c1ccc(C(=O)N2CCN(S(=O)(=O)c3cc4ccc(Cl)cc4s3)CC2)cc1`, the negative-log IC50 (pIC50) is below 8.00.

With `CN1CCN=C1c1ccc(C(=O)N2CCN(S(=O)(=O)c3cc4ccc(Cl)cc4s3)CC2CC(=O)N2CCOCC2)cc1` (stereo not given), the pIC50 was 8.49.

The values are drawn from ChEMBL document CHEMBL1137970, “N,N-Dialkylated 4-(4-arylsulfonylpiperazine-1-carbonyl)-benzamidines and 4-((4-arylsulfonyl)-2-oxo-piperazin-1-ylmethyl)-benzamidines as potent factor Xa inhibitors” (Bioorg Med Chem Lett, 2004).
